Tests used:
[1] = test system: chronic myocardial infarct (MI); test: cardiac PET imaging in control and chronic myocardial infarct rabbits; assay type: in vivo; conditions: MI rabbit, images 20-30 min after injection
Source text: Male New Zealand rabbits (body weight 2.5-3.5 kg) were purchased from Harlan (Oakwood, Mich.) and maintained in the AAALAC-accredited Animal Care Facility at Lantheus Medical Imaging. The study protocol was approved by the Institutional Animal Care and Use Committee. The procedure of developing a rabbit model of myocardial infarction (MI) was similar to the method described previously (Fujita M, Morimoto Y, Ishihara M, Shimizu M, Takase B, Maehara T et al. A new rabbit model of myocardial infarction without endotracheal intubation. J Surg Res 2004; 116:124-8). Briefly, the rabbit was anesthetized with ketamine (40 mg/Kg, im) and xylazine (9 mg/Kg, im) and placed in a supine position. The surgery was performed under aseptic conditions. A mid-sternotomy was performed carefully to avoid injury of parietal pleura. The pericardial sac was exposed and incised. […]
PET images and cardiovascular parameters were evaluated in both normal and MI rabbits. […] In addition, electrocardiogram (ECG) was also recorded with 3 non-invasive limb leads in lead II configuration using the BIOPAC system. […] After a stabilization period, cardiovascular parameters: MAP, SBP, DBP and ECG, were recorded 5 minutes before imaging agent 1 intravenous injection (˜1.5 mCi) and the recording continued for additional 20 minutes post-injection. […]

heart wall = conditions: primate-derived estimates; cited from earlier work

## CC(C)(C)n1ncc(OCc2ccc(COCC[18F])cc2)c(Cl)c1=O [imaging agent 1, 2-t-butyl-4-chloro-5-[4-(2-(^18F)fluoroethoxymethyl)-benzyloxy]-2H-pyridazin-3-1]
[1]
  perfusion defect area in the left ventricular wall: clearly detected
Heart wall
  estimated human radiation dose for the heart wall: 0.067 mSv/MBq
